# Data taken from a melting point compilation (Tetko et al.; mined from patent text by program, amines drawn as free bases though some values may be those of a salt).
row,SMILES,melting point [°C]
1,Cc1ccc(Cl)c(NS(=O)(=O)c2nc3nc(Cl)cc(Cl)n3n2)c1Cl,269 to 271
2,O=C(O)CCCc1cccc(OCc2ccccc2)c1,100 to 102
3,C(=C\c1nc(COc2ccc(CCCCCCn3cncn3)cc2)co1)/c1ccccc1,90 to 91
4,O=C1C(=O)c2ccccc2C2=C1SCC1(CCN(Cc3ccccc3F)CC1)O2,118 to 122
5,COC(=S)c1ccc(C)c(C2=NOCC2)c1C,109 to 111
6,N#Cc1nccc2cccc(-n3cccc3)c12,178
7,COc1ccc(C(=O)Nc2ccccc2)cc1NC(=S)Nc1ccc(F)cc1,182 to 183
8,Cc1c(F)cccc1Cc1c(-c2ccccc2)c2ccccn2c1C(=O)N1CCN(C(=O)OC(C)(C)C)[C@@H](CCO[Si](C)(C)C(C)(C)C)C1,70
9,COc1ccc(C2(O)CCN(CC3CN(c4ccccc4)C(=O)O3)CC2)cc1 (centres undefined),121 to 122
10,O=C1NCCN1Cc1ccc(Cl)c(Cl)c1,129 to 130
11,CC(C)(Cc1cc2nc(Cl)ccc2n1S(=O)(=O)c1ccccc1)C(=O)O,208 to 211
12,CCCn1c(=O)c(=O)[nH]c2cc([N+](=O)[O-])c(-n3ccc(=O)c([N+](=O)[O-])c3)cc21,> 300
13,O=C(NCCSCc1cccc(Cl)c1)c1c([N+](=O)[O-])cccc1[N+](=O)[O-],139 to 140
14,O=C(O)c1ccc(O)c(I)c1,163
15,N#CCc1c(Cl)cccc1Br,82 to 84
16,O=[N+]([O-])c1ccc(CO)c(Cl)c1,62 to 64
17,Cc1ccc(-c2c(NS(=O)(=O)c3ccc(C(C)(C)C)cc3)ncnc2OCCOc2ccc(N(C)C)cc2)cc1,142 to 145
18,CCCCCCC(=N)NC(=S)Nc1ccc(Br)cc1,112 to 113
19,CC[C@@]12C[C@@](C)(O)[C@](O)(c3ccccc3)C[C@H]1CCc1cc(OCC(C)(C)O)ccc12,190 to 193
20,CC(=O)Nc1nc2cnccc2s1,> 212
21,CNc1nc(C(C)c2ccc(-c3ccccc3)c(F)c2)cs1 (centres undefined),144 to 145
22,Cc1ccccc1C(C)Oc1cc(OCc2ccccc2)ccc1C(=O)O (centres undefined),110 to 113
23,Cc1cc(C)nc(SSc2ccc([N+](=O)[O-])cc2C(Cl)(Cl)Cl)n1,151
24,CO[C@]1(c2cc(F)cc(Sc3ccc4c(c3)CC/C4=N\O)c2)CCO[C@@H]1C (racemic),136 to 137
25,CCc1cccc(C(O)CC)c1NC(=O)CC1c2ccccc2Oc2ccccc21 (centres undefined),167 to 168

row,SMILES,melting point [°C]
1,COc1ccc2nccc([C@@H]3CN(CCCNS(=O)(=O)c4ccc5c(c4)NC(=O)CS5)C(=O)O3)c2c1,135 to 140
2,CC1CC2C3CCC4=CC(=O)CCC4=C3C(c3ccc(-c4cccnc4)cc3)CC2(C)C1C(=O)C1CC1 (centres undefined),206
3,CCN(C(=O)N(C)C)c1ccccc1-c1ccc2nnc(C)n2n1,138 to 140
4,COC(=O)c1cc(-c2ccc(OC)c(Cl)c2)nn(CC2CC2)c1=O,101 to 104
5,O=C1Nc2cc(Cl)ccc2C(=O)C1c1cccnc1 (centres undefined),> 340
6,CC(=O)c1ccc(OC(C)(C)C(=O)O)c(Cl)c1,123 to 125
7,COC(=O)c1[nH]c(C)c2c1CN=C(c1ccccc1F)c1cc(Cl)ccc1-2,228 to 231
8,N#Cc1ccc2c(c1)C(=O)c1cccn1CC2,127 to 128
9,CCN1CC([N+](=O)[O-])=C(N(C)C)N(Cc2cccnc2)C1,97 to 98
10,NC(=O)C1=NN(c2cccc(COCC3CCCCC3)c2)C(c2ccccc2F)N1 (centres undefined),148 to 149
11,CC1CN2C(=O)c3nc[nH]c3N(Cc3ccc(Cl)cc3)C2=N1 (centres undefined),259 to 260
12,C#CC(C)N(C)c1nc2ccc(OC(F)(F)F)cc2s1 (centres undefined),42 to 43
13,O=C(O)c1cccc(CN2CCC(c3cn(CC4CC4)c4ccccc34)CC2)c1,207
14,COC(=O)C1CCc2c(noc2-c2ccc(Cl)cc2)C1 (centres undefined),141 to 143
15,CCOC(=O)c1c(CN(C)O)nc2sc3c(c2c1-c1ccc(OC)c(OC)c1)CCN(C(=O)c1ccccc1)C3,129 to 130
16,COc1ccc2ncc(F)cc2c1,51 to 53
17,N=c1sc2cc(OC(F)(F)F)ccc2n1CCS(=O)c1ncccn1 (centres undefined),120
18,O=C1CC[C@@H]2CCc3ccccc3[C@@H]2CN1Cc1ccccc1 (relative stereo),114 to 115
19,Clc1cc(C#Cc2nccs2)c2oc(Cc3ccccc3Cl)nc2c1,149 to 151
20,O=C(O)C1CCC(Nc2nccc(-n3nnc4c(I)cccc43)n2)CC1 (centres undefined),252 to 254
21,O=S(=O)(CCl)c1ncc(Cl)cn1,100
22,COC(=O)NN=Cc1nc(-c2cccc(C)c2)[nH]c1C,162 to 164
23,O=C(O)c1[nH]c2cc(Cl)cc(Cl)c2c1NCS(=O)(=O)c1ccccc1,286 to 290
24,O=C(NCCO)c1cccc(-c2cccc3nn(Cc4ccccc4F)cc23)c1,159 to 160
25,Cc1ccc(CCCc2c(C)nc(N)nc2N)cc1,210 to 213

row,SMILES,melting point [°C]
1,CCOC(=O)C1(C(=O)OCC)CCc2cc(Br)ccc2N1Cc1ccccc1,116 to 117
2,N[C@@H](CSCC1CCN(C(=O)OCc2ccccc2)CC1)C(=O)O,187 to 190
3,OCc1ccc2cc(CO)ccc2c1,171 to 172
4,O=C(C=Cc1ccc(OCc2ccccc2)c([N+](=O)[O-])c1)Nc1ccc(Cl)cc1Cl,152 to 153
5,CC(C)(C)NC(=O)c1ccc(C(O)CCCc2cn([Si](C)(C)C)cn2)cc1 (centres undefined),141 to 143
6,O=C(NCCNCC(O)COc1ccccc1)c1cc(O)ccc1O (centres undefined),178 to 180
7,CCOC(=O)CC(=O)Nc1sc(CC)cc1C(=O)c1ccccc1Cl,56 to 57
8,CC1=CC(c2cccc(Cl)c2)C=C(CN2C(=O)c3ccccc3C2=O)N1 (centres undefined),128 to 130
9,COc1cc2cn(CC3CCCCO3)nc2cc1OC (centres undefined),90 to 96
10,O=CNN(C1=NCCS1)c1ccccc1,140 to 141
11,OCC1OC(n2c(Br)nc3cc(Cl)c(Cl)cc32)CC1O (centres undefined),187 to 188
12,COc1cc(N)c2nc(C)cc(C)c2c1OC,108 to 110
13,Cc1cc(C#N)cc(C(=O)c2[nH]c(=O)[nH]c(=O)c2C(C)(C)C)c1,270 to 271
14,CC(CN1CCCC1)N1c2ccccc2Sc2ccc(C3=NC4CCCCC4N3)cc21 (racemic),109
15,CC(=O)OCN1C(=O)CON(C(C)=O)C1c1ccccc1 (centres undefined),75 to 76
16,CCOC(=O)C(=CNc1cscc1OCC)C(=O)OCC,108 to 109
17,COc1cccc(C(=O)O)c1CCc1cccc(Cl)c1,91
18,COc1c(N2CCC(O)C(CC(C)C)C2)c(F)cc2c(=O)c(C(=O)O)cn(C3CC3)c12 (centres undefined),190 to 192
19,Cc1nc2c(s1)-c1nc(NC(=O)c3ccccc3)ncc1CC2,229 to 231
20,Nc1ccc(CS(=O)(=O)NCc2ccccc2)cc1,117 to 118
21,Cc1nnc(-c2ccnc(Nc3cccc(C(F)(F)F)c3)c2)o1,217 to 218
22,O=C(O)c1cc2cc(Cl)ccc2nc1NC(Cc1c[nH]c2cc(F)ccc12)C(=O)O (centres undefined),170 to 174
23,COC1(c2ccc(Sc3ccc4c(ccc(=O)n4C)c3)s2)CCOCC1,119 to 120
24,CCc1c(Sc2cc(C)cc(C)c2)n(CC2=CCCC2CO)c(=O)[nH]c1=O (centres undefined),59 to 60
25,COc1ccc(O)c(CNc2cccs2)c1,109 to 110

row,SMILES,melting point [°C]
1,O=C(OCC(Cl)(Cl)Cl)N1CCCC(C(=O)OCc2ccccc2)(C(=O)OCc2ccccc2)C1,76
2,Cc1c(-c2ccc(OC(C)C)cc2)n(Cc2ccc(OCCN3CCCCCC3)cc2)c2ccc(O)cc12,120 to 125
3,CCOC(=O)c1[nH]nnc1Nc1ccccc1,129 to 130
4,CCc1c(C(=O)c2cc(C)cc(C)c2)n(CC=CC(=O)OC(C)C)c(=O)[nH]c1=O,175 to 176
5,CC1(c2ccc(C#N)cc2)C(=O)N(Cc2ccc(F)cc2)Cc2cncn21 (centres undefined),66 to 70
6,CC(C)c1ccc2c(c1)c(Sc1ccccc1)c(CC(=O)O)n2Cc1ccc(Cl)cc1,151 to 153
7,CN(c1nnc(C(F)(F)F)s1)C1CCN(Cc2cccc(F)c2)CC1,80.5
8,CC(OCc1ccc(-c2ccc(Cl)cc2)cc1)(C(=O)O)c1ccccc1 (centres undefined),125 to 126
9,COc1ccc(C=Cc2nc3c([nH]2)c(=O)n(C)c(=O)n3C)cc1OC,> 320
10,Cc1ccc(-n2c(N)nc3ccccc32)cc1-c1ccco1,155 to 157
11,c1ccc2c3c([nH]c2c1)CCCSCC3,106 to 107
12,O=C(NCCCc1ccncc1)N(C1CCCCC1)C1CCCCC1,143 to 146
13,CS(=O)(=O)Nc1ccc(C(=O)O)c(Cl)c1,256 to 258
14,Clc1ccc(Cn2cc(C=NNc3nc(-c4ccc(Cl)cc4Cl)cs3)c3ccccc32)c(Cl)c1,185
15,COc1cc(C2=CCCc3ccccc32)c(Cl)cc1C(=O)N1Cc2cccn2Cc2ccccc21,209 to 210
16,COC(=O)Cn1c(C(=O)Nc2nc(-c3cc(OC)c(C)cc3OC)c(CCC3CCCCC3)s2)cc2cc(C)cc(C)c21,154 to 162
17,CC(=NNc1c(Cl)cc(C(F)(F)F)cc1Cl)C(=NO)C(=O)Nc1ccccc1,185 to 186
18,COC(=O)c1snc(-c2ccc(C#N)cc2)c1C(=O)OC,134 to 135
19,COc1ccc2c(c1)CCC(c1ccc(OC)cc1OC)C2=O (centres undefined),116 to 118
20,CC(C)C(=O)Oc1n[nH]c(=O)c2nc3cc(Cl)ccc3c(O)c12,328 to 335
21,C#CCN(Cc1cc2c(=O)n(C)c(CN3CCC(O)CC3)nc2cc1Cl)c1ccc(C(=O)OC(C)(C)C)cc1,208 to 210
22,O=C(Nc1ccccc1)O[C@@H]1CN=C(c2ccc(OC(F)(F)F)cc2)O[C@H]1c1ccccc1 (racemic),128
23,Fc1ccc2[nH]cc(CC3CCN(CC4COc5ccc6ncccc6c5O4)CC3)c2c1 (centres undefined),184
24,Cc1c2c(c(Cc3ccc(C(C)C)cc3)c(C)c1NC(=O)NCCO)OCC2,176 to 177
